Reference: publication PMC6697720, “Saturation of acyl chains converts cardiolipin from an antagonist to an activator of Toll-like receptor-4” (Cellular and Molecular Life Sciences: CMLS, 2019)

Molecular target: T1, murine TLR4, MD2, and CD14 (Mus musculus, UniProt Q9JHF9+Q9QUK6)
T1 construct: expressed in transfected cells; host or cells: HEK293 (ATCC CRL1573), transient transfection with jetPEI
T1 sequence (Q9QUK6 26-835): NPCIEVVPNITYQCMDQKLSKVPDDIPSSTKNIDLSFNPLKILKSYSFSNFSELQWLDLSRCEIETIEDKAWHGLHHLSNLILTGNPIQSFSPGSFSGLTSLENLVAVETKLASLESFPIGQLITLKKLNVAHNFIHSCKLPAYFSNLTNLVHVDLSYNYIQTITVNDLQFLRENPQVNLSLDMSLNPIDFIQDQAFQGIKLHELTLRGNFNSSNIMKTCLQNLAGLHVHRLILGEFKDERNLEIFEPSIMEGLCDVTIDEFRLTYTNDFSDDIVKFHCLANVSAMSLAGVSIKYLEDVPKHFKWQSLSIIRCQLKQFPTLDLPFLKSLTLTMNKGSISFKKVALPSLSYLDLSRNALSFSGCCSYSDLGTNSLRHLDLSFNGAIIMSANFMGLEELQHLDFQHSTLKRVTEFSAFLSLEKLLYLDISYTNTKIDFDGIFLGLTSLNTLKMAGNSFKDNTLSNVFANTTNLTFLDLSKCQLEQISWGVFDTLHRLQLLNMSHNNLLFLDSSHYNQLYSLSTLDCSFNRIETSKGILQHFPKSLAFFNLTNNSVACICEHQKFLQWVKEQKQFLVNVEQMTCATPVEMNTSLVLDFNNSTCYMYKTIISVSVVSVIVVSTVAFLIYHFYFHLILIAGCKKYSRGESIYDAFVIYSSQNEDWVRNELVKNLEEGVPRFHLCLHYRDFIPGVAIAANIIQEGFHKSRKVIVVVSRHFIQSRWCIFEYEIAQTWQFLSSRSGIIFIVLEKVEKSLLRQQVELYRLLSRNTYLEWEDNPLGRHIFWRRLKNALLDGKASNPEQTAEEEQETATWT
T1 sequence (Q9JHF9 19-160): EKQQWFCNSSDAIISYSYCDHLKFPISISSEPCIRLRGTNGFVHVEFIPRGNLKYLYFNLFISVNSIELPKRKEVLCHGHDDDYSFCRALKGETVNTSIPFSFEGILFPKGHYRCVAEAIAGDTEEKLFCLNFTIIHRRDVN
Assay: NF-κB luciferase reporter activation by CLs in HEK293 cells transfected with murine TLR4, MD2 and CD14
Assay type: cell-based
Conditions: 6 h incubation
Description: Cells were seeded at 4 × 10^4 cells/mL in 96-well plates (200 μL/well) and transiently transfected 4 days later. Expression vectors containing an NF-κB transcription reporter vector-encoding firefly luciferase (10 ng/well pNF-κB-luc from Clontech), and a constitutively active reporter vector-encoding Renilla luciferase (5 ng/well phRG-TK; Promega), together with empty vector (pcDNA3.1 from Invitrogen Cat. N. V79020) and cDNA encoding human membrane CD14 (3 ng/well) and human or murine TLR4 and MD2 (3 ng/well) were mixed with jetPEI (Polyplus transfection Cat.N. 101-10N) and incubated with cells according to the manufacturer’s instructions.
After treatment supernatants were discarded, cells were washed with PBS and lysed with passive lysis buffer (Promega Cat.N. E1941). Luciferase and Renilla activity on cell lysates were quantified on a BioTek Synergy HT microplate reader using home-made luciferase reagent (20 mM Tricine, 2.67 mM MgSO4·7H2O, 0.265 mM (MgCO3)4Mg(OH)2·5H2O, 0.1 mM EDTA, 33.3 mM DTT, 530 μM ATP, 270 μM Acetyl Coenzyme A (Lithium salt), 470 μM luciferin (Biosynth), pH 7.8, diluted two times in water before use), or coelenterazine (Biosynth) dissolved in ethanol at 1 mg/mL and diluted 500 times in PBS before use as previously described. […]

With CCCCCCCCCCCCCC(=O)OC[C@H](COP(=O)(O)OCC(O)COP(=O)(O)OC[C@@H](COC(=O)CCCCCCCCCCCCC)OC(=O)CCCCCCCCCCCCC)OC(=O)CCCCCCCCCCCCC (stereo partly shown) [C14:0 CL] the “activation of murine TLR4 (NF-κB)” value was “agonist”.
